From patent US11395822B2, “Methods for treating Huntington's disease” (PTC Therapeutics, Inc., priority 2017, dated 2022)

What follows are compounds tested on Endogenous Huntingtin Protein (assay: Endogenous Huntingtin Protein Assay (ELISA-based MSD electrochemiluminescence)). Conditions: MSD plates coated with MW1 (expanded polyglutamine) or MAB2166 capture antibody.
Format: cell-based
Description: Compounds of Formula (I) were tested using the Meso Scale Discovery (MSD) Assay provided in International Application No. PCT/US2016/066042, filed on Dec. 11, 2016 and claiming priority to U.S. Provisional Application U.S. 62/265,652 filed on Dec. 10, 2015, and published as International Publication No. WO 2017/100726 on Jun. 15, 2017, the entire contents of which are incorporated herein by reference.
The Endogenous Huntingtin Protein assay used in Example 1 was developed using the ELISA-based MSD electrochemiluminescence assay platform.
Endogenous Huntingtin Protein Assay
Meso Scale Discovery (MSD) 96-well or 384-well plates were coated overnight at 4° C. with MW1 (expanded polyglutamine) or MAB2166 monoclonal antibody (for capture) at a concentration of 1 μg/mL in PBS (30 μL per well). Plates were then washed three times with […] wash buffer (0.05% Tween-20 in PBS) and blocked (100 μL blocking buffer; 5% BSA in PBS) for 4-5 hours at room temperature with rotational shaking and then washed three times with wash buffer.
Samples (25 μL) were transferred to the antibody-coated MSD plate and incubated overnight at 4° C. After removal of the lysates, the plate was washed three times with wash buffer, and 25 μL of #5656S (Cell signaling; rabbit monoclonal) secondary antibody (diluted to 0.25 μg/mL in 0.05% Tween-20 in blocking buffer) was added to each well and incubated with shaking for 1 Hour at room temperature. Following incubation with the secondary antibody, the wells were rinsed with wash buffer after which 25 μL of goat anti-rabbit SULFO TAG secondary detection antibody (required aspect of the MSD system) (diluted to 0.25 μg/mL in 0.05% Tween-20 in blocking buffer) was added to each well and incubated with shaking for 1 hour at room temperature. After rinsing three times with wash buffer, 150 μL of read buffer T with surfactant (MSD) were added to each empty well, and the plate was imaged on a SI 6000 imager (MSD) according to manufacturers' instructions provided for 96- or 384-well plates.

Row | IC50 [nM] | Structure (SMILES)
1 | ≤ 100 | Cc1cn2nc(-c3cc(=O)n4cc(N5CCN[C@H](C)C5)ccc4n3)cc(C)c2n1 [Compound 886, (R)-2-(2,8-dimethylimidazo[1,2-b]pyridazin-6-yl)-7-(3-methylpiperazin-1-yl)-4H-pyrido[1,2-a]pyrimidin-4-one]
2 | 100 to 500 | Cc1cn2nc(-c3cc(=O)n4cc(N5CCNC(C)(C)C5)ccc4n3)cc(C)c2n1 [Compound 899, 2-(2,8-dimethylimidazo[1,2-b]pyridazin-6-yl)-7-(3,3-dimethylpiperazin-1-yl)-4H-pyrido[1,2-a]pyrimidin-4-one]
3 | 1000 to 3000 | Cc1cn2nc(-c3cc(=O)n4cc(N5CCNC6(CC6)C5)cc(C)c4n3)cc(C)c2n1 [Compound 905, 2-(2,8-dimethylimidazo[1,2-b]pyridazin-6-yl)-9-methyl-7-(4,7-diazaspiro[2.5]octan-7-yl)-4H-pyrido[1,2-a]pyrimidin-4-one]
